{"source": "patent US20240174744A1", "about": "“METHODS OF TREATMENT USING PROTEIN BINDERS TO IRHOM2 EPITOPES” (SCIRHOM GMBH, priority 2021, published 2024)", "tested_on": "PMA-induced release of HB-EGF from THP-1 cells", "test": "ELISA-based HB-EGF release assay, PMA-stimulated THP-1 cells", "format": "cell-based", "settings": "Homo sapiens, murine (m) and chimeric (ch) antibodies 3 μg/ml, Batimastat 10 μM, PMA 25 ng/ml, 6 hours", "description": "In the following study, ELISA-based HB-EGF release assays were performed to analyze the inhibitory effects of the antibodies of the present disclosure on PMA-induced release of endogenous HB-EGF from human THP-1 monocytic cells.\nIn brief, on day 1, Nunc black MaxiSorp® 96-well plates (Thermo Fisher Scientific, USA) were coated for 7 hours with 100 μl per well of rat anti-human HB-EGF capture antibody (provided as part of the DuoSet ELISA kit) at 2 μg/ml TBS at room temperature. Capture antibody solution was removed and MaxiSorp® plates were blocked with 300 μl per well of TBS, 1% BSA at room temperature for 3 hours. […]\nSubsequently, cells (except those for unstimulated controls) were stimulated with 20 μl per well of PMA (Sigma-Aldrich, USA) at 150 ng/ml in growth medium for a final concentration of 25 ng/ml at 37° C., 5% CO2 for 6 hours. […] Using an infinite M1000 (Tecan Group, Switzerland) microplate reader, the fluorescence of each well was collected at an excitation wavelength of 435 nm and an emission wavelength of 555 nm.", "data": [{"smiles": "CNC(=O)[C@H](Cc1ccccc1)NC(=O)[C@H](CC(C)C)[C@H](CSc1cccs1)C(=O)NO", "note": "[Batimastat]", "values": [{"measurement": "inhibition at 10 µM", "value": 98.9, "unit": "%"}]}]}
